In paper PMC6213047, “Design of Antibacterial Agents: Alkyl Dihydroxybenzoates against Xanthomonas citri subsp. citri” (International Journal of Molecular Sciences, 2018):
In brackets after ≈: the same amount, converted by molar mass. Where two headings read alike, the source gives them in different places.

What was measured:
[1] = test system: X. citri subsp. citri strain 306 (IBSBF 1594); test: MIC by Resazurin Microtiter Assay (REMA); format: cell-based, Xanthomonas citri subsp. citri; conditions: REMA, NYG medium, 29 °C, 12 h
Description: The antibacterial potential of carboxylic acids and their esters were compared to copper oxychloride (a commercial active often used to combat citrus canker). Minimal inhibitory concentration (MIC) values were determined by REMA assay, which measures cellular respiratory activity.
The antibacterial activity of alkyl dihydroxybenzoates and the determination of minimum inhibition concentration (MIC) were performed by the fluorimetric method Resazurin Microtiter Assay (REMA) with some modifications. An overnight culture of X. citri subsp. citri strain 306 (IBSBF 1594) was grown in 20 mL in Nitrogen Yeast Glycerol (NYG) at 29 °C in constant agitation of 180–200 rpm. After 12 h, the Xcc inoculum was dispersed in NYG medium and distributed into a 96 well microtiter plate to a final volume of 100 μL per well (10^5 CFU per well). Stock solutions of tested compounds at 10 mg mL^−1 were prepared in dimethyl sulfoxide (DMSO) and dispersed in NYG medium to obtain 1% DMSO and the final compound concentration range of 0.78–100 μg mL^−1. The negative control was constituted of 100 μL culture medium. In addition, the copper oxychloride was tested as a comparison to alkyl dihydroxybenzoates and kanamycin (20 μg mL^−1), which was used as a control antibiotic. The plate was subsequently incubated at 29 °C for 12 h, and 15 μg mL^−1 freshly prepared resazurin solution in water was added to each well, and the plate was incubated for 2 h. The fluorescence was determined on a Synergy H1 (BioTek, Winooski, VT, USA) microplate reader using the excitation and emission filters at wavelengths of 530 and 590 nm respectively. After the REMA assay, the minimum bactericidal concentration (CBM) assay was performed using a 96-pin stainless steel plate replicator, accurately transferring the wells from the REMA plate to Petri dishes Petri dishes were incubated in oven B.O.D. at 29 °C for 24 to 48 h. The experiments were performed in triplicate.

[2] = test system: ACHN (human renal adenocarcinoma cell line); test: Cytotoxicity MTT assay, ACHN; format: cell-based; conditions: MTT; for IC50: 24 h treatment, read-out: IC50 ACHN
Description: (§1) This test is based on the reduction of 3-(4,5-dimethyl-2-thiazolyl)-2,5-diphenyl-2-tetrazole bromide by viable cells, with formation of violet insoluble formazan crystals. Five cell lines were used in order to evaluate the cytotoxic effect of the compounds as a whole.
(§2) The cytotoxicity of compounds 4, 16, 28 and copper oxychloride was determined by MTT assay. The cell lines used were HaCaT (human keratinocyte cell line—CLS 300493), Huh-7.5 (human hepatoma cell line—ATCC® PTA-8561), MRC-5 (human lung fibroblast cell line—ATCC CCL-171), VERO (monkey kidney epithelial cell line—ATCC® CCL81) and ACHN (human renal adenocarcinoma cell line—ATCC® CRL1611). The cells were cultured in appropriate medium recommended by the American Type Culture Collection.
(§3) The assay was performed with the concentration of 10^4 cells for both cell lines, distributed in 96-well plates and incubated at 37 °C in a 5% CO2 controlled atmosphere oven for 24 h. After the incubation period, the cells were treated with the compounds with a range of 1.56–200 μmol L^−1 and incubated for 24 h. The supernatant was removed, then 100 μL of 3-(4,5-dimethyl-2-thiazolyl)-2,5-diphenyl-2H-tetrazolium (MTT) salt at 1 mg mL^−1 diluted in DMEM medium (Gibco Life Technologies, Gaithersburg, MD, USA) was added and incubated for 30 min. Subsequently, the MTT was removed, then 100 μL of DMSO under agitation for 5 min at 60 rpm was added. The plates were read at 570 nm in a FLUOstar Omega/BMG LABTECH plate reader, Offenburg, BW, DE. We carried out the experiments in triplicate and three independent events for statistical analysis (GraphPad Software, San Diego, CA, USA). The MTT assay is based on the tetrazolium salt (yellow-colored) reduction to formazan (purple-colored) by metabolically active cells.

[3] = test system: HaCaT (human keratinocyte cell line); test: Cytotoxicity MTT assay, HaCaT; format: cell-based; conditions: MTT; for IC50: 24 h treatment, read-out: IC50 HaCaT
Description: as §1, §2, §3

[4] = test system: Huh-7.5 (human hepatoma cell line); test: Cytotoxicity MTT assay, Huh-7.5; format: cell-based; conditions: MTT; for IC50: 24 h treatment, read-out: IC50 Huh-7,5
Description: as §1, §2, §3

[5] = test system: MRC-5 (human lung fibroblast cell line); test: Cytotoxicity MTT assay, MRC-5; format: cell-based; conditions: MTT; for IC50: 24 h treatment, read-out: IC50 MRC-5
Description: as §1, §2, §3

[6] = test system: VERO (monkey kidney epithelial cell line); test: Cytotoxicity MTT assay, VERO; format: cell-based; conditions: MTT; for IC50: 24 h treatment, read-out: IC50 VERO
Description: as §1, §2, §3

[7] = test system: Xanthomonas citri subsp. citri; test: Growth curve of Xcc (OD 600 nm); format: cell-based; conditions: MIC and ½ MIC, 72 h
Description: According to the growth curves of the positive control (PC) and vehicle control (DMSO), it was observed that Xcc reaches the maximum growth phase in a period of 15 h. […] The early growth inhibition (lag phase), which happens in the first hours of contact (period of the first cellular divisions) can be a dynamic process. […] This can be explained because the compounds have bacteriostatic action; that is, as the time passes, the cells become able to recover and restart doubling. Another important finding is that the lag phase consists in the cell adaptation to the new medium conditions and the bacterial population is smaller in relation to the exponential phase facilitates the action of the compounds in the first hours (Figure 1).
An isolated colony of Xanthomonas citri subsp. citri was inoculated in NYG medium for 12 h at 29 °C. After this, the optical density (OD 600 nm) was measured and adjusted to ~0.1. […] Optical density reading was measured on a Synergy H1-BioTek plate reader every 30 min for 72 h. The growth curves were plotted with GraphPad Prism software. At the same time, the degradation assay was performed, solubilizing the compounds in DMSO, which were later incorporated in NYG medium. Later, we scanned the compounds to measure the absorbance values from 210 to 700 nm, and the maximum lambda value of each compound was selected after scanning. After that, punctual readings were carried out every 30 min for 72 h.

[8] = test system: Xcc cells membrane integrity; test: Cellular membrane permeability of Xcc, Live/Dead BacLight kit; format: cell-based, Xanthomonas citri subsp. citri; conditions: compounds at ¼ MIC, 15 min; nisin as positive control
Description: Membrane integrity was measured by using the commercial assay Live/Dead BacLight® bacterial viability kit (Invitrogen, Carlsbad, CA, USA). We observed cells with intact membrane in fluorescent blue (SYTO 9) and cells with disturbance or affected membrane integrity in red or pink (propidium iodide). The data analyses were plotted as the percentage of cells permeated by propidium iodide (Figure 2).
Phase contrast microscopy was used to observe changes in cell shape and signs of cell division alteration using an objective lens with a magnification of 100×. To evaluate the Xcc cells’ membrane integrity, the BacLight® kit was used. Mixtures of SYTO 9 dyes and propidium iodide (PI). SYTO 9 (blue) can stain nucleic acids in general—with intact or damaged membranes. On the other hand, PI (red) penetrates only the bacteria with damaged membranes, causing overlap in the fluorescence of SYTO 9. Therefore, using a mixture of the dyes, the bacteria with disturbed cell membranes are stained in fluorescent red and the intact cell membranes are stained in fluorescent blue. […] Cellular immobilization was performed on slides containing 1% agarose gel in 0.85% saline buffer. The slides were prepared with 1.0 mL of the agarose solution, which was dispersed in optical microscopy slides and on each slide another slide was placed so that the gel continued like a thin film and was of homogeneous height. The slides were dried at room temperature for approximately 20 min and opened at the time of use, when 10 μL of the cell suspension was deposited in the center and covered with the cover slip. The cells were visualized using the Olympus BX-61 optical microscope equipped with OrcaFlash 2.8 monochrome camera (Hamamatsu, Shizuoka, Japan). Cell Sensation software v11 (Olympus) was used to document and analyze the images.

[9] = test system: X. citri subsp. citri strain 306 (IBSBF 1594); conditions: anti-Xcc, previous study ref 25; cited from earlier work
[10] = 24 h, unit as in text for copper oxychloride

Molecule	MIC [1] [µg/mL]	IC50 ACHN [2, 10]	IC50 [2] [µM]	IC50 HaCaT [3, 10]	IC50 [3] [µM]	IC50 Huh-7.5 [4, 10]	IC50 [4] [µM]	IC50 MRC-5 [5, 10]	IC50 [5] [µM]	IC50 VERO [6, 10]	IC50 [6] [µM]	effect on Xcc growth curve [7]	percentage of cells permeated by propidium iodide [8] [%]	MIC [9] [µM]	MIC ([1]; read-out: MIC in μM) [µM]
[Cl-].[Cu+2].[Cu+2].[OH-].[OH-].[OH-] [copper oxychloride, reference compound]	43.1	above 200 μg mL^−1	> 200	above 200 μg mL^−1	> 200	above 200 μg mL^−1	> 200	above 200 μg mL^−1	> 200	above 200 μg mL^−1	> 200	inactive	–	–	–
nisin [reference compound]	–	–	–	–	–	–	–	–	–	–	–	–	79.47	–	–
CCCCCCCOC(=O)c1cc(O)c(O)c(O)c1 [heptyl gallate]	–	–	–	–	–	–	–	–	–	–	–	–	–	116 (≈ 31.1 µg/mL)	–
NC[C@H]1O[C@H](O[C@H]2[C@H](O)[C@@H](O[C@H]3O[C@H](CO)[C@@H](O)[C@H](N)[C@H]3O)[C@H](N)C[C@@H]2N)[C@H](O)[C@@H](O)[C@@H]1O [Kanamycin, kanamycin, reference compound]	19.9	–	> 200	–	> 200	–	> 200	–	> 200	–	> 200	–	–	–	40
